Measurements: US8828987B2, “Pyridine amide derivatives as EP4 receptor antagonists” (Rottapharm Biotech S.R.L., priority 2010, dated 2014)
Read-outs that look alike come from different tables or passages of the source.

Assays:
[1] = biological target: T1, human EP4 receptor (Homo sapiens, UniProt P35408); test: cAMP assay (AlphaScreen) on human EP4 membrane of transfected cells, antagonism of PGE2; assay type: biochemical; conditions: HEK293 hEP4 cell membrane stimulated with PGE2 3 nM; read-out: functional IC50
T1 construct: expressed in transfected cells; membrane fraction used
Outline: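 Membranes of HEK293 cells stably expressing human EP4 (1 μg/well) in HBSS/IBMX 0.5 mM/GTP/GDP/ATP buffer, pH 7.4, preincubated 30 min at 22-23 °C with compound plus PGE2 3 nM. cAMP quantified by AlphaScreen competition with biotinylated cAMP after 1 h. IC50 from cAMP standard curve by linear regression.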

[2] = biological target: T1, human EP4 receptor; test: [3H]-Prostaglandin E2 membrane binding assay (human EP4/HEK293 transfectant membranes); conditions: [3H]-PGE2 1 nM, hEP4/HEK293 membranes; Ki by Cheng-Prusoff; read-out: Binding pKi (converted)
Outline: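 HEK293 membranes stably expressing human EP4 (10 µg protein) incubated with 1 nM [3H]-PGE2 in 10 mM MES-KOH pH 6, 10 mM MgCl2, 1 mM CaCl2, 90 min at room temperature; nonspecific binding with 1 µM PGE2. Filtration, scintillation counting; Ki via Cheng-Prusoff, reported as pKi; compounds tested 1 nM–1 µM.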

[3] = Pharmacokinetics in male Han Wistar rats, intravenous and oral; assay type: in vivo; conditions: rat; for AUC(0-inf) / AUC(0-t) / clearance / Vd / half-life / Cmax / Tmax / bioavailability: male, Han Wistar, plasma; for clearance: read-out: CLp* (converted); for Vd: read-out: Vss*; for half-life: read-out: t½* (converted); for bioavailability: po
Experimental: Determination of PK of the Invention Compounds
The pharmacokinetics of compounds E10, E16, E34, E38, E51, were studied in male Han Wistar rats. The rats were treated intravenously and orally (n=3 for each dose route) with a compounds formulated as solutions. The rats were fitted with a jugular cannula for serial sampling. A full profile was acquired for each rat. Plasma extracts were quantitatively analyzed using a specific and sensitive LC-MS/MS bioanalytical method. Inter-individual variations between the three rats in each group were limited (CV for pharmacokinetic parameters was below 50%).

[4] = 2 mg/kg, PO, 2.0 mg/kg, read-out: F %

T1 sequence (P35408 whole entry): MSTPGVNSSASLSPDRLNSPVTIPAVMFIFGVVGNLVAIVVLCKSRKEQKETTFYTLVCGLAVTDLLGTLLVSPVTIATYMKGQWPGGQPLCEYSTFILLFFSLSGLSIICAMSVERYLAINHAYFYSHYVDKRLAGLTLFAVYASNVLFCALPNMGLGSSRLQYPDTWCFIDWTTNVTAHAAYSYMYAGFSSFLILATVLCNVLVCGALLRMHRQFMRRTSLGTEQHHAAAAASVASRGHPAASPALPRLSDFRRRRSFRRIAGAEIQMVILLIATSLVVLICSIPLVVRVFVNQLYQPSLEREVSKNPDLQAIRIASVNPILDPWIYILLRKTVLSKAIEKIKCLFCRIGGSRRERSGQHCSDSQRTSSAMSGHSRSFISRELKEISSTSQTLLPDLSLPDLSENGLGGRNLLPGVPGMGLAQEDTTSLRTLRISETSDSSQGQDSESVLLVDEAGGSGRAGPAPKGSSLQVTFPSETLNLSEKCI

Compound	IC50 [1] [nM]	Ki [2] [nM]	AUC(0-inf) ([3]; IV, 2.0 mg/kg) [ng·h/mL]	AUC(0-t) ([3]; IV, 2.0 mg/kg) [ng·h/mL]	clearance ([3]; IV, 2.0 mg/kg) [mL/min]	Vd ([3]; IV, 2.0 mg/kg) [L]	half-life ([3]; IV, 2.0 mg/kg) [h]	AUC(0-inf) ([3]; PO, 2.0 mg/kg) [ng·h/mL]	AUC(0-t) ([3]; PO, 2.0 mg/kg) [ng·h/mL]	Cmax ([3]; PO, 2.0 mg/kg) [ng/mL]	Tmax ([3]; PO, 2.0 mg/kg) [h]	half-life ([3]; PO, 2.0 mg/kg) [h]	bioavailability [3, 4] [%]	Tlast ([3]; IV, 2.0 mg/kg) [h]	Tlast ([3]; PO, 2.0 mg/kg) [h]	further results
O=C(O)c1ccc(C2(NC(=O)c3cc(Cl)cnc3N3CC(Oc4cccc(F)c4)C3)CC2)cc1 [E 16, 4-(1-(5-chloro-2-(3-(3-fluorophenoxy)azetidin-1-yl)nicotinamido)cyclopropyl)benzoic acid]	40	3.16	3330	3290	2.67	0.394	5.62	3000	2990	1800	0.25	3.12	91	24	24	bioavailability ([3]; 2 mg/kg, after oral administration, read-out: absolute oral bioavailability F): 90%
O=C(O)c1ccc(C2(NC(=O)c3cc(Cl)cnc3N3CC(Oc4ccccc4)C3)CC2)cc1 [E 10, 4-(1-(5-chloro-2-(3-phenoxyazetidin-1-yl)nicotinamido)cyclopropyl)benzoic acid]	46	15.8	3150	3090	2.68	0.307	3.96	1820	1720	923	0.25	4.85	56	24	24	–
O=C(O)c1ccc(C2(NC(=O)c3cc(C(F)(F)F)cnc3N3CC(Oc4cccc(F)c4)C3)CC2)cc1 [E 38, 4-(1-(2-(3-(3-fluorophenoxy)azetidin-1-yl)-5-(trifluoromethyl)nicotinamido)cyclopropyl)benzoic acid]	19.3	12.6	–	–	–	–	–	–	–	–	–	–	–	–	–	AUC(0-inf) ([3]; IV, 1.0 mg/kg): 832 ng·h/mL; AUC(0-t) ([3]; IV, 1.0 mg/kg): 816 ng·h/mL; clearance ([3]; IV, 1.0 mg/kg): 5.68 mL/min; Vd ([3]; IV, 1.0 mg/kg): 1.07 L; half-life ([3]; IV, 1.0 mg/kg): 5.9 h; AUC(0-inf) ([3]; PO, 1.0 mg/kg): 598 ng·h/mL; AUC(0-t) ([3]; PO, 1.0 mg/kg): 551 ng·h/mL; Cmax ([3]; PO, 1.0 mg/kg): 374 ng/mL; Tmax ([3]; PO, 1.0 mg/kg): 0.25 h; half-life ([3]; PO, 1.0 mg/kg): 2.59 h; bioavailability ([3]; 1 mg/kg, PO, 1.0 mg/kg, read-out: F %): 59%; Tlast ([3]; IV, 1.0 mg/kg): 24 h; Tlast ([3]; PO, 1.0 mg/kg): 6 h
